Results as given in ChEMBL document CHEMBL1201862, “PubChem BioAssay data set” (2004).
Each block holds one compound with its values, some of them ahead of it. Calls of active or inactive are those of the source.

Experiments:
[1] = target: Melanocortin receptor 4 (Homo sapiens, UniProt P32245); type: functional, cell-based;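 also: Cell-based assay with luminescence read-out, confirmatory dose-response testing for agonist activity of biased ligands at MC4R; human U2OS cells with tagged receptor and beta-arrestin; potency of agonists that increase receptor coupling to beta-arrestin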
[2] = target: T1, Ubiquitin-conjugating enzyme E2 N (Homo sapiens, UniProt P61088); type: functional;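 also: Dose-response confirmation in a TR-FRET assay detecting UBC13-driven polyubiquitin chain formation, inhibition measured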
T1 sequence (P61088 whole entry): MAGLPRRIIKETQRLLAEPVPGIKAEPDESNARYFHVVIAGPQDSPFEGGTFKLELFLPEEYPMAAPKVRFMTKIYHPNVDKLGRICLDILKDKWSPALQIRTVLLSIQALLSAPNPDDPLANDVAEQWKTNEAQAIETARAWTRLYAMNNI

[3] = target: T2, Microphthalmia-associated transcription factor (Homo sapiens, UniProt O75030); assay: reducers of TRPM1 reporter luminescence, concentration series – cell-based, SK-MEL-5, cherry-picked, set 3, MITF inhibitor project, dose response (AID 493073); type: functional;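 also: SK-MEL-5 melanoma cells with luciferase driven by the MITF target TRPM1 promoter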
T2 sequence (O75030 whole entry): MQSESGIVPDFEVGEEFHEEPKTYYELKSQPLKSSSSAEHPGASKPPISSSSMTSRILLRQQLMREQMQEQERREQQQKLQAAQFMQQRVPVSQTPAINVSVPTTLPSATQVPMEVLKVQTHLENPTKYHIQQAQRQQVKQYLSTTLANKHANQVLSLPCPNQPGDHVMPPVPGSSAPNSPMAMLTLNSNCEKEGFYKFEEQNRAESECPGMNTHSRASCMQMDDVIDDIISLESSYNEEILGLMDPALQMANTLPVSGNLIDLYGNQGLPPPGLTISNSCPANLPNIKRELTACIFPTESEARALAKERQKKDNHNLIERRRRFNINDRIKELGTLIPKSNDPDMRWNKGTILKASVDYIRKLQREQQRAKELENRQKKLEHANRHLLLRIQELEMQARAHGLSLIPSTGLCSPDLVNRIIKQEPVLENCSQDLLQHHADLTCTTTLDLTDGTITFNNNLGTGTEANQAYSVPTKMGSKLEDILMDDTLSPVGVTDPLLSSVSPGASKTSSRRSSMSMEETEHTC

[4] = test system: A-375; assay: MITF: Counter assay: A375 proliferation Measured in Cell-Based System Using Plate Reader - 2084-03_Inhibitor_Dose_DryPowder_Activity. [Related pubchem assays (depositor defined):AID488944]; type: functional; settings: Homo sapiens
[5] = target: Dual specificity protein phosphatase 3 (Homo sapiens, UniProt P51452); assay: VHR phosphatase inhibition, dose response, selectivity assay for STEP inhibitor project, biochemical (AID 602374); type: functional; settings: read-out: IC50_Mean
[6] = target: Tyrosine-protein phosphatase non-receptor type 5 (Homo sapiens, UniProt P54829); assay: PTPN5 enzyme inhibition – biochemical, fluorescence intensity, uHTS hits, confirmation (AID 602372); type: functional; settings: read-out: IC50_Mean
[7] = target: Cytochrome P450 2D6 (Homo sapiens, UniProt P10635);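 also: CYP2D6 member of a cytochrome P450 panel assay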
[8] = target: Tyrosine-protein phosphatase non-receptor type 11 (Homo sapiens, UniProt Q06124); assay: PTPN11 enzyme inhibitors – biochemical, selectivity assay for STEP inhibitor project, dose response (AID 602367); type: functional; settings: read-out: IC50_Mean
[9] = target: Ras and Rab interactor 1/Tyrosine-protein kinase ABL1 (Homo sapiens, UniProt P00519+Q13671); type: functional;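 also: biochemical TR-FRET dose-response test measuring inhibition of binding between Rin1 and Abl proteins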
[10] = blockers of CRF-binding protein–CRF-R2 complex – cell-based, uHTS hits, 384-well, dose response (AID 651639); type: functional, Homo sapiens; settings: read-out: IC50_Mean
[11] = target: T3, Corticotropin-releasing factor receptor 2/Corticotropin-releasing factor-binding protein (Homo sapiens, UniProt P24387+Q13324); assay: Dose Response confirmation of uHTS hits for small molecule antagonists of the CRF-binding protein and CRF-R2 receptor complex.; type: functional; settings: read-out: IC50_Mean
T3 sequence (Q13324 whole entry): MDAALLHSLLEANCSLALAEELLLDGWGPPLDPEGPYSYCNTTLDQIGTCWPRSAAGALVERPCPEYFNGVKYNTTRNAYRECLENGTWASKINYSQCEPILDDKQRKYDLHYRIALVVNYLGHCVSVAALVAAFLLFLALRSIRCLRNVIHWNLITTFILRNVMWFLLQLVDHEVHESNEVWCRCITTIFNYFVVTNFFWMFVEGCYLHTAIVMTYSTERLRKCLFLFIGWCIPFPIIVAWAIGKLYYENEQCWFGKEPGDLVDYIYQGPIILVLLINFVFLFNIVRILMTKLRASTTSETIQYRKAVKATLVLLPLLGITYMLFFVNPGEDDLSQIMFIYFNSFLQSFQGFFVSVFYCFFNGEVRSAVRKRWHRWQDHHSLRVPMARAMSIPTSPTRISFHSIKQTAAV
T3 sequence (P24387 whole entry): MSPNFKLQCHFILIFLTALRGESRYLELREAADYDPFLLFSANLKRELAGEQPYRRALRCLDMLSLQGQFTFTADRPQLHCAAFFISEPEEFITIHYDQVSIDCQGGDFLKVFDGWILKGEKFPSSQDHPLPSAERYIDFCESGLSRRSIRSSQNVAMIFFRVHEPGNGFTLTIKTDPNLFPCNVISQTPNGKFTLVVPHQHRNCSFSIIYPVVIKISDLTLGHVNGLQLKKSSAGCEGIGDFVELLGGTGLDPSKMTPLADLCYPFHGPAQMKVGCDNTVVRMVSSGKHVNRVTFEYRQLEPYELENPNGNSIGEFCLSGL

[12] = target: T3, Corticotropin-releasing factor receptor 2/Corticotropin-releasing factor-binding protein; assay: activators of CRF receptor 2 with binding protein – uHTS hits, confirmation (AID 602473); type: functional; settings: read-out: EC50_Mean
[13] = target: Cytochrome P450 3A4 (Homo sapiens, UniProt P08684); settings: Potency;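 also: confirmatory qHTS run detecting inhibitors and substrates of CYP3A4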
[14] = bead-based luminescence quenchers, dual-tagged ARNT – biochemical, AlphaScreen, cherry-pick, artefact control for ARNT-TACC3 interaction inhibitor project, dose response (AID 651705); type: functional;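 also: AlphaScreen bead proximity signal that flags compounds interfering with the detection technology; potency reflects signal decrease which marks the compound as an assay artifact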
[15] = target: T4, Sentrin-specific protease 8 (Homo sapiens, UniProt Q96LD8); type: functional
T4 sequence (Q96LD8 whole entry): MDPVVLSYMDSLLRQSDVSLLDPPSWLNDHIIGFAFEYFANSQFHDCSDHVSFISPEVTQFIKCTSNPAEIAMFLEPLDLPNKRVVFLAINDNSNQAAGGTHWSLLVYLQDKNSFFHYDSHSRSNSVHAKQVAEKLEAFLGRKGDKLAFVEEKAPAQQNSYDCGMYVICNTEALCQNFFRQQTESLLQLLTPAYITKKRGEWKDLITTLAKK

[16] = target: T4, Sentrin-specific protease 8; type: functional; remark: listed apart in the source
[17] = target: T5, Sentrin-specific protease 1 (Homo sapiens, UniProt Q9P0U3); assay: Dose response confirmation of small molecule inhibitors of the catalytic domain of the SUMO protease, SENP1 in a FRET assay.; type: functional; settings: read-out: IC50_Mean
T5 sequence (Q9P0U3 whole entry): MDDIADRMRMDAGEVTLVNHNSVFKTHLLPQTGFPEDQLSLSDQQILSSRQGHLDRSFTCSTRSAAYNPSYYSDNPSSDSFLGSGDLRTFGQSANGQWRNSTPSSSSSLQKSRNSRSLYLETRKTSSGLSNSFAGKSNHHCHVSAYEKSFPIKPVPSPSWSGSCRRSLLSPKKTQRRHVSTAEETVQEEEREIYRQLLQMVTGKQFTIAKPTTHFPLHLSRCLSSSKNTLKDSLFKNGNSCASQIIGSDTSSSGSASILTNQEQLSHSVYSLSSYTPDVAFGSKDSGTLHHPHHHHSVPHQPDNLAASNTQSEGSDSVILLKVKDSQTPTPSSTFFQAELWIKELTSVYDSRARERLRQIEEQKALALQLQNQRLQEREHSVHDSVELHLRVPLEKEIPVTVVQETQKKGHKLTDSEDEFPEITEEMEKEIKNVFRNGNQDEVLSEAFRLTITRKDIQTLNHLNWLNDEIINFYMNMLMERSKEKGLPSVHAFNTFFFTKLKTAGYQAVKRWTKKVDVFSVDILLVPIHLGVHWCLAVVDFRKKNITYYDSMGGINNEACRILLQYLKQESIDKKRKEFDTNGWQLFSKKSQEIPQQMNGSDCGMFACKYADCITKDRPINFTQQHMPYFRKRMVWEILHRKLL

[18] = target: T5, Sentrin-specific protease 1; assay: SENP1 catalytic domain blockers, concentration series – biochemical, kinetic FRET, dose response (AID 651697); type: functional; settings: read-out: IC50_Mean
[19] = target: T6, DNA repair and recombination protein RAD54-like (Homo sapiens, UniProt Q92698); assay: RAD54 Holliday junction migration blockers – biochemical, fluorescence, cherry-picked samples, dose series, confirmation (AID 651657); type: functional
T6 sequence (Q92698 whole entry): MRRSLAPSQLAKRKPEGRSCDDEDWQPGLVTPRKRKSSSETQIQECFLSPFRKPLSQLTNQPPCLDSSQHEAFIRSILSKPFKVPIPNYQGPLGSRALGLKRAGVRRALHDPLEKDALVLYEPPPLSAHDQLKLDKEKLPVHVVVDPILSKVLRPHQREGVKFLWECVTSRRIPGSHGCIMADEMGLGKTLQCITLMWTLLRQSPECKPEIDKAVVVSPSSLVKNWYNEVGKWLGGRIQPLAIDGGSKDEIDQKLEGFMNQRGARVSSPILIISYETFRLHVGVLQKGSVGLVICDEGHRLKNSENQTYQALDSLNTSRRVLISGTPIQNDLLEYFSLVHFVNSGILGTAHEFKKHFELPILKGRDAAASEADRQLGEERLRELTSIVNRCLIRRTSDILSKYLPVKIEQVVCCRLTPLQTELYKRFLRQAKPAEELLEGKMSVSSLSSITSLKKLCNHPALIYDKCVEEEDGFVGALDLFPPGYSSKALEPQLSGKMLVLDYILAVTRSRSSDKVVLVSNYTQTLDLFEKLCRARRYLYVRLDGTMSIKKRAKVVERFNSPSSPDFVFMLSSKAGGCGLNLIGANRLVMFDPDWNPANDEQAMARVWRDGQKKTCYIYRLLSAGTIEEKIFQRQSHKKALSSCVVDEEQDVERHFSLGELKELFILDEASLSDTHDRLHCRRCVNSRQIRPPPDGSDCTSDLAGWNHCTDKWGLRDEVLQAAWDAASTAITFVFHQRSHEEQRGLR

[20] = NIH3T3 cell viability loss – ATP luminescence, mouse fibroblasts, counter-screen, dose response (AID 2010); type: functional, cell-based;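 also: cells exposed to compound for about 90 hours before reading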
[21] = target: T7, DNA repair protein RAD52 homolog (Homo sapiens, UniProt P43351); type: functional, biochemical
T7 sequence (P43351 whole entry): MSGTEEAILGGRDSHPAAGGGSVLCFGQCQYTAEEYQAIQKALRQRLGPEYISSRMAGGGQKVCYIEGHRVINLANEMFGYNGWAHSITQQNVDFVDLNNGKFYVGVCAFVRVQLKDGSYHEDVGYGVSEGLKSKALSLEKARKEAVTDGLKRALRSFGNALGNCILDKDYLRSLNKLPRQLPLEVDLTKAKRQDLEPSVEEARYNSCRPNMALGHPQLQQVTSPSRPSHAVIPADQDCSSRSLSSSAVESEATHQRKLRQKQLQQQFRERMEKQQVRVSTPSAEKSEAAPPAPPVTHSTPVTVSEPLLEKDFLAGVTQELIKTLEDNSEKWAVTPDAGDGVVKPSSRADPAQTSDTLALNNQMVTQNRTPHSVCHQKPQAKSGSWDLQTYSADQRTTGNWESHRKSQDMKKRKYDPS

[22] = cytotoxicity toward MDA-MB-231 breast cancer cells – cell-based, CellTiter-Glo luminescence, cherry-pick, cytotoxicity control for RAD54 inhibitor project, dose response (AID 651692); type: functional
[23] = Trypanosoma cruzi growth suppression in host cells – NIH3T3 host cells, beta-gal luminescence, confirmation (AID 2044); type: functional, cell-based;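 also: intracellular parasites grown in NIH/3T3 mouse fibroblasts as host cells; luminescent beta-galactosidase reporter signal from transgenic T. cruzi replicating inside host cells; inhibitors lower the luminescence signal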

Chain of Melanocortin receptor 4 (P32245 whole entry): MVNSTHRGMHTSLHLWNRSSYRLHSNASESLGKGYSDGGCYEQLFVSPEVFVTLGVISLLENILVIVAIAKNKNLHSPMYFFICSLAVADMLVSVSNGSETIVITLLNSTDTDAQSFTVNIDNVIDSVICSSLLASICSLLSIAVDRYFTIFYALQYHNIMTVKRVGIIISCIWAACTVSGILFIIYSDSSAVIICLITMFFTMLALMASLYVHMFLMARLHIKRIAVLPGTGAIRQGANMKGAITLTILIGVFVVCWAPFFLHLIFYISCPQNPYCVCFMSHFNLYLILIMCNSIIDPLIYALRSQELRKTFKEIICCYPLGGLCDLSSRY
Chain of Ras and Rab interactor 1/Tyrosine-protein kinase ABL1 (P00519 whole entry): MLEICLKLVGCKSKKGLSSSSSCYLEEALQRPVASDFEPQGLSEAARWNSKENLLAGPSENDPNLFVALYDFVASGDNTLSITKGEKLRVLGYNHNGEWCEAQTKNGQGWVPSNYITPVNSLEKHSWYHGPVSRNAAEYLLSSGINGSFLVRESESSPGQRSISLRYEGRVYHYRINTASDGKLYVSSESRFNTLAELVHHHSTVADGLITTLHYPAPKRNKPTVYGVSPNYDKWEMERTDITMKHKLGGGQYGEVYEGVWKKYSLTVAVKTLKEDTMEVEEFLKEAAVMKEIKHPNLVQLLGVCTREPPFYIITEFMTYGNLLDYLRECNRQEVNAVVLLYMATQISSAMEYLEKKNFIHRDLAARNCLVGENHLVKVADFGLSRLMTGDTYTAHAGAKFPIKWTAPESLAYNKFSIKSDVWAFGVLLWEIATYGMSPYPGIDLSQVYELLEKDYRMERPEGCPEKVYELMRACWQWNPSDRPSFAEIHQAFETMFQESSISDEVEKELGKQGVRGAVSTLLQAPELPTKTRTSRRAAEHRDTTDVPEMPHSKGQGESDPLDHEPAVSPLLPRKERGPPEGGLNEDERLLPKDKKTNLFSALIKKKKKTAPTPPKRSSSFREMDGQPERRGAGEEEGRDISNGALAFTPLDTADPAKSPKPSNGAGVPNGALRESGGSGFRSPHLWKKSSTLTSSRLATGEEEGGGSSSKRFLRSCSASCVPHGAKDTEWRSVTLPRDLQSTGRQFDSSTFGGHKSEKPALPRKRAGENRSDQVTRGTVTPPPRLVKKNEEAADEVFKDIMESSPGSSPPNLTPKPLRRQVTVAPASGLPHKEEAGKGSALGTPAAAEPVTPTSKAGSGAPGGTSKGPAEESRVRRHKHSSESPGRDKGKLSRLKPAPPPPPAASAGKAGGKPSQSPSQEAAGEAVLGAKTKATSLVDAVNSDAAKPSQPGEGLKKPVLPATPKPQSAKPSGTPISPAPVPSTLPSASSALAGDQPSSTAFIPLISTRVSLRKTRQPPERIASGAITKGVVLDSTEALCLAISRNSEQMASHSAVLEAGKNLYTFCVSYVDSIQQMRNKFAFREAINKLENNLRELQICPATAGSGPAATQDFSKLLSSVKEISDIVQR
Chain of Ras and Rab interactor 1/Tyrosine-protein kinase ABL1 (Q13671 whole entry): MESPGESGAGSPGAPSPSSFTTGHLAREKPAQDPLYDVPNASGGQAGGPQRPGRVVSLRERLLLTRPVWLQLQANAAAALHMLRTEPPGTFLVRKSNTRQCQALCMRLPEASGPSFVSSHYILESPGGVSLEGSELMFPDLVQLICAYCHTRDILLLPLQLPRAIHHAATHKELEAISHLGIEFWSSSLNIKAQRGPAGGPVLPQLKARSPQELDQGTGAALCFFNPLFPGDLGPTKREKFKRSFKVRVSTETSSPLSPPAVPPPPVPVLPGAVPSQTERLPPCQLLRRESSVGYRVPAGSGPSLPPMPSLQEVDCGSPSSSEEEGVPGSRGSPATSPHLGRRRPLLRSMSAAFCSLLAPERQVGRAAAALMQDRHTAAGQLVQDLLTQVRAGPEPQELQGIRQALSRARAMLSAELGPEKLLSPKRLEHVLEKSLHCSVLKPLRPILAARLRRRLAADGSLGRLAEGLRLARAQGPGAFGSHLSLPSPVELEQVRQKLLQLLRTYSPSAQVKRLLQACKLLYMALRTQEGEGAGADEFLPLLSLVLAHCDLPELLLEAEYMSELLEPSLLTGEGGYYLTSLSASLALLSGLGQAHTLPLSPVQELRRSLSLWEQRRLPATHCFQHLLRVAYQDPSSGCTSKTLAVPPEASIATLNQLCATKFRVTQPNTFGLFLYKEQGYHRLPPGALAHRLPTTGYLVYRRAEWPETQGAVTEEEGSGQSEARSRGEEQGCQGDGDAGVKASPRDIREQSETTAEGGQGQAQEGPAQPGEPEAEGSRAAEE
Chain of Dual specificity protein phosphatase 3 (P51452 whole entry): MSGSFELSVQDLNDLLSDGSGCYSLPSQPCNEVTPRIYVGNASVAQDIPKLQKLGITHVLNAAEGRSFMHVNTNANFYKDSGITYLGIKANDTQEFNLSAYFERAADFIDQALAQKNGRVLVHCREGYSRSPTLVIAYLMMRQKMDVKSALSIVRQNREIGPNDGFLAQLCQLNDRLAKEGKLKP
Chain of Tyrosine-protein phosphatase non-receptor type 5 (P54829 whole entry): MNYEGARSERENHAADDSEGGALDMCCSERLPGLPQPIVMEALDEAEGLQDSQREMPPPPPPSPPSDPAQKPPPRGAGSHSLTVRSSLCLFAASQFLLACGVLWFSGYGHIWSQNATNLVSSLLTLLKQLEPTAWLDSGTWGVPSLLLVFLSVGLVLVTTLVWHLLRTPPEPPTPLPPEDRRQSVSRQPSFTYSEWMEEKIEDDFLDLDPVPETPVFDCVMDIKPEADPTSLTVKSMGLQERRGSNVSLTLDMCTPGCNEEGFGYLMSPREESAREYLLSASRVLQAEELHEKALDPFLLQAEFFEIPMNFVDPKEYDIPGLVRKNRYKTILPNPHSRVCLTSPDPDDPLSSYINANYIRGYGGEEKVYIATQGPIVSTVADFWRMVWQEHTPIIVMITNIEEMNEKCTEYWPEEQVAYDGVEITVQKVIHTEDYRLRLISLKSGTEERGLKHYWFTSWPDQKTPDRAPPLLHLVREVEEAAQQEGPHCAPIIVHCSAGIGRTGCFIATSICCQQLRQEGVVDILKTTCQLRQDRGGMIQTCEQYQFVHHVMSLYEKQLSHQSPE
Chain of Cytochrome P450 3A4 (P08684 whole entry): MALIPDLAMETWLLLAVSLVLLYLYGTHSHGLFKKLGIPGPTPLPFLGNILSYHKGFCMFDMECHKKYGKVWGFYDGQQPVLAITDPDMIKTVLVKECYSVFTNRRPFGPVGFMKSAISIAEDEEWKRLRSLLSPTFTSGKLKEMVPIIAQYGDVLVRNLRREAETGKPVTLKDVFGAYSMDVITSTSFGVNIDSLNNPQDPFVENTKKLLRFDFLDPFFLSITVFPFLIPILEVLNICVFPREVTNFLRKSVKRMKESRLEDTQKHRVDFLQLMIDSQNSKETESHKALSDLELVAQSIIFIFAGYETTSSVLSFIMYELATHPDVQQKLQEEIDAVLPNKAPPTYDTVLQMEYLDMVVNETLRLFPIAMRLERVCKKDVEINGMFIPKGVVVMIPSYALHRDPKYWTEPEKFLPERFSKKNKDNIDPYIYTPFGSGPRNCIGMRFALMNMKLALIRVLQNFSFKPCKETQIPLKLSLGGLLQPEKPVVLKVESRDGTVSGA
Chain of Cytochrome P450 2D6 (P10635 whole entry): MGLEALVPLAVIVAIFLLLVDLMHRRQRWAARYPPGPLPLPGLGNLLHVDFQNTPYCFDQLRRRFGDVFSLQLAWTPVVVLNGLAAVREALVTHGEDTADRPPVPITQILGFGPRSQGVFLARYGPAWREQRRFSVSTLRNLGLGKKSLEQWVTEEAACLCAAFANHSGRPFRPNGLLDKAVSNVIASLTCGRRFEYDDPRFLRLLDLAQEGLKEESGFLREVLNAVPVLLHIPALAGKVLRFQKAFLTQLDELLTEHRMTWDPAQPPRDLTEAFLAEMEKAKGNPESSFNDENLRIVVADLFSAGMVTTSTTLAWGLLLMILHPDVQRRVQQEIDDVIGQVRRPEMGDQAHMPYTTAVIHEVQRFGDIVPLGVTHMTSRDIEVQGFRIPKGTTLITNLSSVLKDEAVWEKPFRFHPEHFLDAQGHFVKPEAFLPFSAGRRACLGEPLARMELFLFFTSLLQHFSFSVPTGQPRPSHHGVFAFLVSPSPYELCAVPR

SMILES: CCCCCCCNC(=O)C1(CC2CC(c3ccc(Cl)cc3)=NO2)CCNCC1 (centres undefined)
EC50 [1]: > 89.2 µM (inactive)
IC50 [2]: > 20 µM (inactive)
AC50 [3]: 14 µM (active)
AC50 [4]: 19.9 µM (active)

SMILES: Oc1cc(Cl)c(Cl)c(Cl)c1
IC50 [10]: > 20 µM (inactive)
IC50 [11]: 9.09 µM (active)
EC50 [12]: > 53 µM (inactive)
AC50 [13]: 12.6 µM (inconclusive)

SMILES: Cc1nnc(NC(=O)c2ccc(S(=O)(=O)N3CC(C)OC(C)C3)cc2)o1 (centres undefined)
AC50 [14]: 122 µM (active)

SMILES: COc1ccc(C(=O)N2C=Cc3ccccc3C2C#N)cc1 (centres undefined)
IC50 [15]: > 100 µM (inactive)
IC50 [16]: 5.74 µM (active)

SMILES: NNc1ccc(S(=O)(=O)N2CCCCC2)cn1
AC50 [14]: 87.7 µM (active)

SMILES: CCN(CC)CCCN(C(=O)c1ccco1)c1nc(-c2ccc(Cl)cc2)cs1
AC50 [19]: 45.1 µM (active)
EC50 [20]: 9.32 µM (active)
AC50 [21]: 19.2 µM (active)
AC50 [22]: 22.9 µM (active)
EC50 [23]: 0.87 µM (active)

Second part, the compound after the results:

EC50 [1]: > 89.2 µM (inactive)
SMILES: COc1cccc(-c2cnc3c(NC=O)cc(-c4ccoc4)cn23)c1

IC50 [5]: 1.3 µM (active)
IC50 [6]: 20.1 µM (inactive)
AC50 [7]: 0.0224 µM (inconclusive)
IC50 [8]: 3.34 µM (active)
SMILES: OCCN1CCN(C(=S)c2ccc(Br)cc2)CC1

IC50 [9]: 16.5 µM (inactive)
SMILES: O=C(Cc1ccc(NC(=O)C2CCN(C(=O)C3CCC3)CC2)cc1)Nc1ccc(C(=O)N2CCOCC2)cc1

IC50 [9]: 1.86 µM (active)
SMILES: COc1ccc(Cl)cc1NC(=O)CN(C)C(=O)c1cc(-c2ccncc2)nc2ccccc12

IC50 [17]: 36.2 µM (inactive)
IC50 [18]: 19.5 µM (active)
SMILES: Cc1c(N2C(=O)/C(=C/c3ccc(N(C)C)cc3)N(C)C2=S)c(=O)n(-c2ccccc2)n1C

IC50 [10]: > 20 µM (inactive)
IC50 [11]: 5.91 µM (active)
EC50 [12]: > 53 µM (inactive)
SMILES: Cc1ccc(N(C(=O)c2nsc(Cl)c2Cl)C(C(=O)NC2CCCC2)c2ccc(O)cc2)cc1C (centres undefined)
